Measured values: PubChem BioAssay AID1918994 (Molecular Pharmacology Branch, DTP, NCI, 2023)

Tested on: 292921-168-R-J2-PDC complex spheroid growth
Assay: Anticancer human tumor 292921-168-R-J2-PDC patient-derived pancreatic carcinoma cell line growth inhibition [AhR]
Settings: for IC50: curve of first compound; for viability, T/C: stronger effect = lower value
Method in brief: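 Agents were dosed in half-log steps down from roughly clinical Cmax, or from 10 microM where Cmax was unknown, alone and with AhR antagonists. Read-out: percent test/control growth of tumor spheroids containing HUVEC and MSC stromal cells.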

[1] = second compound 0.1 µM, first compound 0.0316 µM
[2] = second compound 0.1 µM, first compound 0.1 µM
[3] = second compound 0.1 µM, first compound 0.316 µM
[4] = second compound 0.1 µM, first compound 1 µM
[5] = second compound 0.1 µM, first compound 3.16 µM
[6] = second compound 0.1 µM, first compound 10 µM
[7] = second compound 0.316 µM, first compound 0.0316 µM
[8] = second compound 0.316 µM, first compound 0.1 µM
[9] = second compound 0.316 µM, first compound 0.316 µM
[10] = second compound 0.316 µM, first compound 1 µM
[11] = second compound 0.316 µM, first compound 3.16 µM
[12] = second compound 0.316 µM, first compound 10 µM
[13] = second compound 1 µM, first compound 0.0316 µM
[14] = second compound 1 µM, first compound 0.1 µM
[15] = second compound 1 µM, first compound 0.316 µM
[16] = second compound 1 µM, first compound 1 µM
[17] = second compound 1 µM, first compound 3.16 µM
[18] = second compound 1 µM, first compound 10 µM
[19] = second compound 3.16 µM, first compound 0.0316 µM
[20] = second compound 3.16 µM, first compound 0.1 µM
[21] = second compound 3.16 µM, first compound 0.316 µM
[22] = second compound 3.16 µM, first compound 1 µM
[23] = second compound 3.16 µM, first compound 3.16 µM
[24] = second compound 3.16 µM, first compound 10 µM
[25] = second compound 10 µM, first compound 0.0316 µM
[26] = second compound 10 µM, first compound 0.1 µM
[27] = second compound 10 µM, first compound 0.316 µM
[28] = second compound 10 µM, first compound 1 µM
[29] = second compound 10 µM, first compound 3.16 µM
[30] = second compound 10 µM, first compound 10 µM
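Further: spheroids exposed to compounds for seven days after three days of growth.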

Row | IC50 (second compound 0.1 µM) [nM] | IC50 (second compound 0.316 µM) [nM] | IC50 (second compound 1 µM) [nM] | IC50 (second compound 3.16 µM) [nM] | IC50 (second compound 10 µM) [nM] | Structure (SMILES) | viability, T/C [1] [%] | viability, T/C [2] [%] | viability, T/C [3] [%] | viability, T/C [4] [%] | viability, T/C [5] [%] | viability, T/C [6] [%] | viability, T/C [7] [%] | viability, T/C [8] [%] | viability, T/C [9] [%] | viability, T/C [10] [%] | viability, T/C [11] [%] | viability, T/C [12] [%] | viability, T/C [13] [%] | viability, T/C [14] [%] | viability, T/C [15] [%] | further results
1 | 539 | 612 | 277 | 229 | < 31.6 | Nc1ccccc1NC(=O)c1ccc(CNC(=O)OCc2cccnc2)cc1 + Cc1ccccc1N=Nc1ccc(NC(=O)c2ccnn2C)c(C)c1 | 66.5 | 65.1 | 57 | 40.9 | 27.3 | 12 | 66.8 | 65.8 | 58.9 | 42.8 | 26.1 | 12.8 | 63.9 | 54.5 | 52.6 | viability, T/C [16]: 35.9%; viability, T/C [17]: 26.5%; viability, T/C [18]: 12.3%; viability, T/C [19]: 54%; viability, T/C [20]: 55%; viability, T/C [21]: 50.7%; viability, T/C [22]: 33.4%; viability, T/C [23]: 23.7%; viability, T/C [24]: 10.3%; viability, T/C [25]: 48.9%; viability, T/C [26]: 42.7%; viability, T/C [27]: 34.7%; viability, T/C [28]: 32.3%; viability, T/C [29]: 17.7%; viability, T/C [30]: 8.67%
2 | < 31.6 | < 31.6 | < 31.6 | < 31.6 | < 31.6 | Nc1ccn(C2OC(CO)C(O)C2(F)F)c(=O)n1 (stereo not given) + Cc1ccccc1N=Nc1ccc(NC(=O)c2ccnn2C)c(C)c1 | 8.08 | 7.37 | 8.63 | 7.79 | 8.32 | 6.76 | 8.99 | 7.65 | 8.65 | 8.07 | 8.01 | 7.23 | 8.29 | 8.55 | 9.53 | viability, T/C [16]: 8.8%; viability, T/C [17]: 11.7%; viability, T/C [18]: 7.88%; viability, T/C [19]: 8.95%; viability, T/C [20]: 7.07%; viability, T/C [21]: 7.3%; viability, T/C [22]: 10.1%; viability, T/C [23]: 8.53%; viability, T/C [24]: 5.4%; viability, T/C [25]: 8.79%; viability, T/C [26]: 9.42%; viability, T/C [27]: 7.46%; viability, T/C [28]: 10.9%; viability, T/C [29]: 9.28%; viability, T/C [30]: 6.09%
3 | > 10000 | > 10000 | > 10000 | > 10000 | 4550 | O=C(c1cc(Cc2n[nH]c(=O)c3ccccc23)ccc1F)N1CCN(C(=O)C2CC2)CC1 + Cc1ccccc1N=Nc1ccc(NC(=O)c2ccnn2C)c(C)c1 | 80 | 84.9 | 92.9 | 95.8 | 89.6 | 75.5 | 79.4 | 90 | 86.8 | 85.8 | 84.5 | 65.7 | 77.8 | 67.8 | 79.2 | viability, T/C [16]: 73.5%; viability, T/C [17]: 82.8%; viability, T/C [18]: 67.4%; viability, T/C [19]: 69.2%; viability, T/C [20]: 64.4%; viability, T/C [21]: 72.5%; viability, T/C [22]: 67.4%; viability, T/C [23]: 63.6%; viability, T/C [24]: 58.9%; viability, T/C [25]: 50.6%; viability, T/C [26]: 59.5%; viability, T/C [27]: 54.6%; viability, T/C [28]: 62.6%; viability, T/C [29]: 49.7%; viability, T/C [30]: 43.8%
